One test has as its system MCF7 cells. Briefly: Inhibitory effects on MCF7 cell proliferation (CellTiter-Glo). The test is classed as cell-based. The note with it: Homo sapiens, 144 h, 6 days incubation, read-out: IC50 (nM), inhibition of MCF7 cell proliferation. As for the experimental part:
(§1) MCF7 cells (TCHu74, National Collection of Authenticated Cell Cultures) were cultured in an MEM (GE Healthcare, SH30024.01) complete medium containing 10% fetal bovine serum. On day 1 of the experiment, MCF7 cells were seeded into a 96-well plate at a density of 3,000 cells/well using MEM containing 2% fetal bovine serum, with each well containing 135 μL of cell suspension. The plate was incubated in a 37° C., 5% CO2 cell incubator overnight. The next day, different concentrations of test compounds prepared in media were added at 15 μL/well. The final concentrations of the compounds were 9 concentration points obtained by 4-fold serial dilution from 1000 nM. A blank control containing 0.5% DMSO was set up. The plate was incubated in a 37° C., 5% CO2 cell incubator for 6 days. On day 8, the 96-well cell culture plate was taken out, and CellTiter-Glo® Luminescent Cell Viability Assay (Promega, G7573) was added at 75 μL/well. After the plate was left at room temperature for 10 min, luminescence signal readings were taken on a multilabel microplate reader (PerkinElmer, VICTOR 3). The IC50 values for the inhibitory activity of the compounds were calculated from the concentrations of the compounds and the luminescence signal readings using Graphpad Prism software.
In general terms: ATP-based viability assays read luminescence as a measure of living cells.

In a further test the test system is MCF7/ERα Y537S cells. Put plainly: Inhibitory activity on proliferation of ERα mutant-expressing MCF7 cells. It counts as cell-based. As to conditions: Homo sapiens, 144 h, 6 days incubation, CellTiter-Glo, read-out: IC50 (nM), inhibition of proliferation of ERα mutant-expressing MCF7 cells. As for the experimental part:
The objective of this experiment was to determine the inhibitory activity of the compounds of the present disclosure on the proliferation of ERα mutant-expressing MCF7 cells.
as §1, with “cells expressing the ERα Y537S mutant were constructed by lentiviral infection. MCF7/ERα Y537S cells” for “cells (TCHu74, National Collection of Authenticated Cell Cultures)”, “bovine serum and […] puromycin.” for “bovine serum.”, “experiment,” for “experiment, MCF7”, “135 µL” for “135 μL”, “75 µL/well.” for “75 μL/well.”

As to `O=C1CC[C@H](N2Cc3cc(N4CCN(CC5CCN(c6ccc([C@@H]7c8ccc(O)cc8CC[C@@H]7CC7CCC7)cc6)CC5)CC4)ccc3C2=O)C(=O)N1` [Example 35, (S)-3-(5-(4-((1-(4-((1R,2R)-2-(Cyclobutylmethyl)-6-hydroxy-1,2,3,4-tetrahydronaphthalen-1-yl)phenyl)piperidin-4-yl)methyl)piperazin-1-yl)-1-oxoisoindolin-2-yl)piperidine-2,6-dione], the values for the IC50 with MCF7 cells and in the test on MCF7/ERα Y537S cells were 3 nM and 8.48 nM, respectively.

As for `O=C1CCC(N2Cc3cc(N4CCN(CC5CCN(c6ccc([C@@H]7c8ccc(O)cc8CC[C@@H]7C7CCCCC7)cc6)CC5)CC4)ccc3C2=O)C(=O)N1` (mixture of isomers) [Example 15-1, 3-(5-(4-((1-(4-((1R,2R)-2-Cyclohexyl-6-hydroxy-1,2,3,4-tetrahydronaphthalen-1-yl)phenyl)piperidin-4-yl)methyl)piperazin-1-yl)-1-oxoisoindolin-2-yl)piperidine-2,6-dione], the IC50 in the test on MCF7 cells amounted to 0.46 nM; in the test with MCF7/ERα Y537S cells, 2.18 nM.

For `O=C1CC[C@H](N2Cc3cc(N4CCN(CC5CCN(c6ccc([C@@H]7c8ccc(O)cc8OC[C@@H]7C7CCC7)cc6)CC5)CC4)ccc3C2=O)C(=O)N1` [Example 32, (S)-3-(5-(4-((1-(4-((3R,4R)-3-Cyclobutyl-7-hydroxychroman-4-yl)phenyl)piperidin-4-yl)methyl)piperazin-1-yl)-1-oxoisoindolin-2-yl)piperidine-2,6-dione], the IC50 in the test with MCF7 cells stood at 8.34 nM; in the test with MCF7/ERα Y537S cells, 28.8 nM.

On to `O=C1CC[C@H](N2Cc3cc(N4CCN(CC5CCN(c6ccc([C@@H]7c8ccc(O)cc8CC[C@@H]7C7CCC7)cc6)CC5)CC4)ccc3C2=O)C(=O)N1` [Example 13-1, (S)-3-(5-(4-((1-(4-((1R,2R)-2-Cyclobutyl-6-hydroxy-1,2,3,4-tetrahydronaphthalen-1-yl)phenyl)piperidin-4-yl)methyl)piperazin-1-yl)-1-oxoisoindolin-2-yl)piperidine-2,6-dione], for which the IC50 worked out at 0.83 nM in the test with MCF7 cells and 4.79 nM in the test on MCF7/ERα Y537S cells.

For `O=C1CC[C@H](N2Cc3cc(N4CCN(CC5CCN(c6ccc([C@@H]7c8ccc(O)cc8CC[C@@H]7C7CCCC7)cc6F)CC5)CC4)ccc3C2=O)C(=O)N1` [Example 19, (S)-3-(5-(4-((1-(4-((1R,2R)-2-cyclopentyl-6-hydroxy-1,2,3,4-tetrahydronaphthalen-1-yl)-2-fluorophenyl)piperidin-4-yl)methyl)piperazin-1-yl)-1-oxoisoindolin-2-yl)piperidine-2,6-dione], the IC50 came to 0.87 nM in the test on MCF7 cells and 5.04 nM with MCF7/ERα Y537S cells.

Regarding `O=C1CCC(N2Cc3cc(N4CCN(CC5CCN(c6ccc([C@H]7c8ccc(O)cc8CC[C@H]7C7CCCC7)cc6)CC5)CC4)ccc3C2=O)C(=O)N1` (stereo partly drawn) [Example 14-2, 3-(5-(4-((1-(4-((1S,2S)-2-Cyclopentyl-6-hydroxy-1,2,3,4-tetrahydronaphthalen-1-yl)phenyl)piperidin-4-yl)methyl)piperazin-1-yl)-1-oxoisoindolin-2-yl)piperidine-2,6-dione], the results for the IC50 in the test on MCF7 cells and in the test with MCF7/ERα Y537S cells were 8.17 nM and 24.4 nM, respectively.

Consider `O=C1CCC(N2Cc3cc(N4CCN(CC5CCN(c6ccc([C@H]7c8ccc(O)cc8CC[C@H]7C7CCOCC7)c(F)c6)CC5)CC4)ccc3C2=O)C(=O)N1` (mixture of isomers) [Example 12-2, 3-(5-(4-((1-(3-Fluoro-4-((1R,2S)-6-hydroxy-2-(tetrahydro-2H-pyran-4-yl)-1,2,3,4-tetrahydronaphthalen-1-yl)phenyl)piperidin-4-yl)methyl)piperazin-1-yl)-1-oxoisoindolin-2-yl)piperidine-2,6-dione], for which the IC50 in the test on MCF7 cells is 13.7 nM; in the test with MCF7/ERα Y537S cells, 39.4 nM.

Take `CC(C)C[C@H]1CCc2cc(O)ccc2[C@H]1c1ccc(N2CCC(CN3CCN(c4ccc5c(c4)CN([C@@H]4CCC(=O)NC4=O)C5=O)CC3)CC2)cc1` [Example 42, (R)-3-(5-(4-((1-(4-((1R,2R)-6-Hydroxy-2-isobutyl-1,2,3,4-tetrahydronaphthalen-1-yl)phenyl)piperidin-4-yl)methyl)piperazin-1-yl)-1-oxoisoindolin-2-yl)piperidine-2,6-dione]: the IC50 with MCF7 cells turned out to be 0.88 nM; in the test with MCF7/ERα Y537S cells, 3.09 nM.

As for `O=C1CCC(N2Cc3cc(N4CCN(CC5CCN(c6ccc([C@@H]7c8ccc(O)cc8CCC78CCC8)cc6)CC5)CC4)ccc3C2=O)C(=O)N1` (mixture of isomers) [Example 23-1, 3-(5-(4-((1-(4-((R)-6′-Hydroxy-3′,4′-dihydro-1′H-spiro[cyclobutane-1,2′-naphthalen]-1′-yl)phenyl)piperidin-4-yl)methyl)piperazin-1-yl)-1-oxoisoindolin-2-yl)piperidine-2,6-dione], the IC50 in the test with MCF7 cells stood at 2.39 nM; in the test with MCF7/ERα Y537S cells it was 7.53 nM.

In the case of `CCC[C@H]1CCc2cc(O)ccc2[C@H]1c1ccc(N2CCC(CN3CCN(c4ccc5c(c4)CN([C@H]4CCC(=O)NC4=O)C5=O)CC3)CC2)cc1` [Example 29, (S)-3-(5-(4-((1-(4-((1R,2S)-6-Hydroxy-2-propyl-1,2,3,4-tetrahydronaphthalen-1-yl)phenyl)piperidin-4-yl)methyl)piperazin-1-yl)-1-oxoisoindolin-2-yl)piperidine-2,6-dione], the IC50 with MCF7 cells is 0.78 nM; in the test on MCF7/ERα Y537S cells, 3.62 nM.

As for `O=C1CCC(N2Cc3cc(N4CCN(CC5CCN(c6ccc([C@@H]7c8ccc(O)cc8CC[C@@H]7C7CCOCC7)cc6)CC5)CC4)ccc3C2=O)C(=O)N1` (mixture of isomers) [Example 8-1, 3-(5-(4-((1-(4-((1R,2R)-6-Hydroxy-2-(tetrahydro-2H-pyran-4-yl)-1,2,3,4-tetrahydronaphthalen-1-yl)phenyl)piperidin-4-yl)methyl)piperazin-1-yl)-1-oxoisoindolin-2-yl)piperidine-2,6-dione], the IC50 in the test on MCF7 cells amounted to 0.46 nM; in the test on MCF7/ERα Y537S cells, 2.8 nM.

For `O=C1CCC(N2Cc3cc(N4CCN(CC5CCN(c6ccc([C@H]7c8ccc(O)cc8CC[C@H]7C7CCOCC7)cc6)CC5)CC4)ccc3C2=O)C(=O)N1` (stereo partly drawn) [Example 8-2, 3-(5-(4-((1-(4-((1S,2S)-6-Hydroxy-2-(tetrahydro-2H-pyran-4-yl)-1,2,3,4-tetrahydronaphthalen-1-yl)phenyl)piperidin-4-yl)methyl)piperazin-1-yl)-1-oxoisoindolin-2-yl)piperidine-2,6-dione], the IC50 with MCF7 cells amounted to 36.5 nM; in the test on MCF7/ERα Y537S cells, 92.2 nM.

In the case of `CC(C)C[C@H]1CCc2cc(O)ccc2[C@H]1c1ccc(N2CCC(CN3CCN(c4ccc5c(c4)CN(C4CCC(=O)NC4=O)C5=O)CC3)CC2)cc1` (mixture of isomers) [Example 41, 3-(5-(4-((1-(4-((1R,2R)-6-Hydroxy-2-isobutyl-1,2,3,4-tetrahydronaphthalen-1-yl)phenyl)piperidin-4-yl)methyl)piperazin-1-yl)-1-oxoisoindolin-2-yl)piperidine-2,6-dione], the IC50 with MCF7 cells was 0.62 nM; in the test with MCF7/ERα Y537S cells it was 2.89 nM.

Consider `O=C1CCC(N2Cc3nc(N4CCN(CC5CCN(c6ccc([C@@H]7c8ccc(O)cc8CCC78CCCC8)cc6)CC5)CC4)ccc3C2=O)C(=O)N1` (mixture of isomers) [Example 6, 3-(2-(4-((1-(4-((R)-6′-Hydroxy-3′,4′-dihydro-1′H-spiro[cyclopentane-1,2′-naphthalen]-1′-yl)phenyl)piperidin-4-yl)methyl)piperazin-1-yl)-5-oxo-5,7-dihydro-6H-pyrrolo[3,4-b]pyridin-6-yl)piperidine-2,6-dione], for which the IC50 in the test on MCF7 cells was found to be 0.75 nM; in the test on MCF7/ERα Y537S cells, 3.19 nM.

In the case of `O=C1CCC(N2Cc3cc(N4CCN(CC5CCN(c6ccc([C@@H]7c8ccc(O)cc8CCC78CCCC8)cc6)CC5)CC4)ccc3C2=O)C(=O)N1` (mixture of isomers) [Example 2-1, 3-(5-(4-((1-(4-((R)-6′-Hydroxy-3′,4′-dihydro-1′H-spiro[cyclopentane-1,2′-naphthalen]-1′-yl)phenyl)piperidin-4-yl)methyl)piperazin-1-yl)-1-oxoisoindolin-2-yl)piperidine-2,6-dione], the IC50 stood at 1.94 nM with MCF7 cells and 7.83 nM with MCF7/ERα Y537S cells.

(Values after US20250099596A1, “TETRAHYDRONAPHTHALENE COMPOUND, AND PREPARATION METHOD THEREFOR AND USE THEREOF IN MEDICINE” (Jiangsu Hengrui Pharmaceuticals Co., Ltd., priority 2021, published 2025).)
